The record followed here is patent publication US11406622B2, “Glaucocalyxin a derivative, pharmaceutically acceptable salt thereof, or pharmaceutical composition thereof and uses thereof in preparation of drugs for treating psoriasis” (SUZHOU PHARMAVAN CO., LTD., priority 2017, dated 2022).

Test [1] deals with xylene-induced auricular swelling in mice. Briefly: Xylene-induced auricular swelling in mice (Example 7). It is filed as in vivo, mouse. The following applies: 7 consecutive days, xylene on 8th day. The method, then: In this example, the glaucocalyxin A derivatives and pharmaceutically acceptable salts thereof were detected for the inhibitory effect thereof on xylene-induced auricular swelling in mice. Compound 23 was used as an exemplary compound, and the detection method was as follows.
20 mice were randomly divided into 4 groups with 5 mice in each group, which were blank control group, 30 mg/kg dexamethasone treatment group, Compound 23 (10 mg/kg) treatment group, and Compound 23 (50 mg/kg) treatment group, respectively. 0.25-0.3 mL depending on the body weight was intragastrically administrated for 7 consecutive days, and an equal volume of 5% glucose injection was administrated to the blank group. On the 8th day, xylene was used to produce a model of auricular swelling in the right auricle of mice. 15 μl of xylene, an inflammatory inducer, was applied to both sides of the right auricle of each mouse, and the left auricle was left un-treated as a normal auricle control. After 1 hour, the mice were sacrificed by cervical dislocation. Both auricles were cut off along the auricle baseline, and then punched at the same position by using a puncher with a diameter of 8 mm to give auricle pieces, which were then weighed on an electronic analytical balance. The auricular swelling rate and the auricular swelling inhibitory rate were calculated according to the following formula. […]

The subject of test [2] is human keratinocytes (HaCaT). Briefly: Effect on proliferation of human keratinocytes, CCK-8, 48 h (Example 5). It counts as cell-based. Conditions: 48 hours of treatment. As for the experimental part: In this example, the glaucocalyxin A derivatives of the present application, or pharmaceutically acceptable salts thereof, were examined for the effect on the proliferation of human keratinocytes. In this example, the glaucocalyxin A derivatives as shown in Table 1 were examined by using the following procedure. A cell suspension was prepared and inoculated into three 96-well plates at 8000 cells in a volume of 150 μl per well, which were then cultured overnight in an incubator at 37° C., 5% CO2. On the next day, 50 μl of test compound solution at different concentrations was added to each well. Triplicate wells were set up for each concentration. A vehicle control group (without compound), a cell control group (without compound and vehicle), and a blank medium control group (without cells, a well for null adjustment) were also set up, and cultured for an additional 48 hours. CCK-8 staining working solution was added at 110 μL per well, and cultured for additional 1-4 h. At the end of the culture, the absorbances were measured at 450 nm (OD450 nm) on a Bio-Tek enzyme-linked immunosorbent assay. The results were expressed as the mean OD450 nm value of triplicates±standard deviation (x±sd). The Origin 7.0 was used for plotting and analysis. A fitting curve was obtained by plotting the OD value of each group against the logarithmic concentration of the test compound, and then the IC50 value was determined.

Usually IC50 stands for the concentration that inhibits the measured activity by half. Take `Br.C=C1C(=O)C23C(O)CC4C(C)(C)c5nc(N(C)C)sc5CC4(C)C2CCC1C3O` (stereo not drawn) [Compound 23]: the “inhibition of auricular swelling” value in test [1] (10 mg/kg intragastric) and in test [1] (50 mg/kg intragastric) was “effective” in each case. Further, the IC50 in test [2] turned out to be 0.93 µM.
